Test results published in patent US10758609B2, “Cross-reactive T-cell epitopes of HIV, SIV, and FIV for vaccines in humans and cats” (priority 2015, dated 2020).
Residues, ends and D or L forms follow the SMILES beside them.

Tested on: CD8^+ T cells from HIV^+ subjects
Assay: FACS-based intracellular staining (ICS) for cytolysin (perforin) and cytotoxins (GrzA, GrzB) in CD8+ T cells
Details: HIV+ human subjects; for Cyto: CD8+ T-cell cytotoxins (perforin, GrzA & B), frequency of responders: FIV epitope peptide; for Cyto (cytolysin/cytotoxin production), frequency of responders: FIV peptides; for CyCD8: CD8+ T-cell cytolysin/cytotoxins (perforin, GrzA & B), frequency of responders: HIV-1 epitope peptide, threshold ≥0.2%
Procedure: The overlapping peptide pools of FIV and HIV-1 structural and enzyme proteins were used to stimulate the […] (PBMC) and the T cells from HIV^+ subjects as previously described for epitope mapping of HIV-1 and FIV p24 and reverse transcriptase (RT) (Sanou et al., 2013; Roff et al., 2015). The individual peptides in those peptide pools with positive responses to either interferon-γ (IFNγ) production and/or T-cell proliferation were determined with IFNγ ELISpot analysis and CFSE-based CD3^+CD4^+ and CD3^+CD8^+ T-cell proliferation analyses followed by the FACS-based intracellular staining (ICS) for cytolysin (perforin) and cytotoxin (granzyme A [GrzA] and GrzB) (Sanou et al., 2013; Roff et al., 2015). Besides viral p24 and RT proteins, the identical approach was used to identify anti-HIV/FIV T-cell epitopes on viral matrix (MA), nucleocapsid (NC), protease (PR), RNAase, integrase (IN), surface envelope (SU Env), and transmembrane envelope (TM Env) (FIG. 12).
Since our goal is to develop HIV vaccine for human use, the HIV peptides (Table 10) counterpart of the cross-reactive FIV peptides shown in Table 9 were tested with PBMC and T cells from HIV^+ subjects. The immune functions analyzed were human IFNγ production by ELISpot, cytolysin/cytotoxin production by ICS, and CFSE-based proliferation of CD3^+CD4^+ and CD3^+CD8^+ T cells from HIV^+ subjects (Table 10, the first set of results). In addition, the Los Alamos National Laboratories (LANL) database was used to identify the HLA allele(s) of the HIV epitope sequence with CTL activity that can exist within the sequence of the conserved counterpart HIV peptide (Table 9, LANL CTL). The bold HLA class-I supertypes and the bold 2-digit alleles are those on the “Optimal CD8^+ CTL Epitopes” list and those without bold are alleles for potential CTL epitope. […] The HLA class II such as HLA-DRB1 has yet to be fully classified into supertypes, and therefore the 4-digit resolution nomenclatures for the HLA-DRB1 alleles are shown.
The threshold for positive IFNγ and IL2 ELISpot responses is ≥50 spot-forming units (SFU) per 10^6 PBMC. The threshold for CFSE-based CD4^+ and CD8^+ T-cell proliferation is ≥2% CD4^+ T-cell CFSE^low or CD8^+ T-cell CFSE^low. The threshold of FACS-based intracellular cytokine staining (ICS) is ≥0.2%. […] The nine FIV peptides in black were used in the current MAP vaccine trial, whereas the 13 peptides in blue were not used. […] The MAPs and their corresponding peptide(s) were also tested for their ability to enhance or suppress in vitro FIV infection of feline PBMC (E/S of peptides and E/S of MAP).
The counterpart HIV-1 peptides of the FIV peptides were also tested for immunogenicity using PBMC and T cells from HIV^+ human subjects. […] The HRT7-1 and HRT7-2 were also tested with cells from HIV^+ subjects on ART. The threshold for positive IFNγ ELISpot response is ≥75 spot-forming units (SFU) per 10^6 PBMC. The threshold for CFSE-based CD4^+ (CD4^+ T) and CD8^+ (CD8^+ T) T-cell proliferation is ≥2% CD4^+ T-cell CFSE^low or CD8^+ T-cell CFSE^low. The threshold of intracellular cytokine staining (ICS) of FACS-based cytolysin (perforin) and cytotoxins (granzymes A and B) in CD4^+ T cells (CyCD4) and CD8^+ T cells (CyCD8) is ≥0.2%. […] The nine HIV-1 peptides in black are the counterpart FIV peptides used in the current MAP vaccine trial, whereas the 13 peptides in blue were not.

SMILES | Cyto: CD8+ T-cell cytotoxins (perforin, GrzA & B), frequency of responders | Cyto (cytolysin/cytotoxin production), frequency of responders | CyCD8: CD8+ T-cell cytolysin/cytotoxins (perforin, GrzA & B), frequency of responders
CC[C@H](C)[C@H](N)C(=O)N[C@@H](CC(=O)O)C(=O)N[C@@H](Cc1ccccc1)C(=O)N[C@@H](CCCNC(=N)N)C(=O)N[C@H](C(=O)N[C@@H](CC(C)C)C(=O)N[C@@H](CC(N)=O)C(=O)N[C@@H](CCCCN)C(=O)N[C@@H](CC(C)C)C(=O)N[C@H](C(=O)N[C@@H](CC(=O)O)C(=O)N[C@@H](CCCCN)C(=O)NCC(=O)N[C@@H](C)C(=O)O)[C@@H](C)O)C(C)C [FRT3-5] (H-IDFRVLNKLTDKGA-OH; N-terminus and C-terminus assumed) | +++ (41%-54% (+++)) | – | –
CSCC[C@H](NC(=O)[C@H](CCCNC(=N)N)NC(=O)[C@H](C)NC(=O)[C@@H]1CCCN1C(=O)[C@H](C)NC(=O)[C@@H](N)Cc1ccccc1)C(=O)N[C@@H](CCC(N)=O)C(=O)N[C@@H](CS)C(=O)N[C@@H](CCCNC(=N)N)C(=O)N[C@@H](C)C(=O)N[C@@H](Cc1c[nH]c2ccccc12)C(=O)N[C@@H](Cc1ccc(O)cc1)C(=O)N[C@@H](CC(C)C)C(=O)N[C@@H](CCC(=O)O)C(=O)N[C@@H](C)C(=O)O [Fp9-3] (H-FAPARMQCRAWYLEA-OH) | +++ (41%-54% (+++)) | +++ (40.1%-54% (+++)) | –
CC[C@H](C)[C@H](NC(=O)[C@H](CC(C)C)NC(=O)[C@@H]1CCCN1C(=O)[C@H](CO)NC(=O)[C@H](CC(C)C)NC(=O)[C@@H](NC(=O)[C@H](Cc1c[nH]c2ccccc12)NC(=O)CNC(=O)[C@H](CCC(N)=O)NC(=O)[C@@H]1CCCN1C(=O)[C@H](CC(C)C)NC(=O)[C@H](CO)NC(=O)[C@@H](N)CS)C(C)C)C(=O)N[C@@H](Cc1ccc(O)cc1)C(=O)O [FRT7-2] (H-CSLPQGWVLSPLIY-OH) | ++++ (>54% (++++)) | ++++ (>54% (++++)) | –
CC[C@H](C)[C@H](NC(=O)[C@H](CO)NC(=O)[C@H](CC(C)C)NC(=O)[C@H](CO)NC(=O)[C@H](CCC(N)=O)NC(=O)[C@H](CCCCN)NC(=O)[C@H](CC(C)C)NC(=O)[C@H](Cc1ccc(O)cc1)NC(=O)[C@H](CC(C)C)NC(=O)[C@@H](N)CCCCN)C(=O)N[C@@H](C)C(=O)N[C@@H](CC(N)=O)C(=O)N[C@@H](C)C(=O)O [Fp14-4] (H-KLYLKQSLSIANA-OH; N-terminus and C-terminus assumed) | ++++ (>54% (++++)) | ++++ (>54% (++++)) | –
CC(C)C[C@H](NC(=O)[C@H](Cc1ccc(O)cc1)NC(=O)[C@H](CC(C)C)NC(=O)[C@H](CCCCN)NC(=O)[C@@H](NC(=O)[C@H](CCC(=O)O)NC(=O)[C@H](C)NC(=O)[C@@H](NC(=O)[C@H](CC(N)=O)NC(=O)[C@H](CCC(N)=O)NC(=O)[C@H](CCC(=O)O)NC(=O)[C@H](CCC(N)=O)NC(=O)[C@@H](N)CC(=O)O)[C@@H](C)O)C(C)C)C(=O)N[C@@H](CCCCN)C(=O)O [Fp14-1] (H-DQEQNTAEVKLYLK-OH) | +++ (41%-54% (+++)) | +++ (40.1%-54% (+++)) | –
CC[C@H](C)[C@H](NC(=O)[C@H](CO)NC(=O)[C@H](CC(C)C)NC(=O)[C@H](CO)NC(=O)[C@H](CCC(N)=O)NC(=O)[C@H](CCCCN)NC(=O)[C@H](CC(C)C)NC(=O)[C@H](Cc1ccc(O)cc1)NC(=O)[C@H](CC(C)C)NC(=O)[C@H](CCCCN)NC(=O)[C@@H](NC(=O)[C@H](CCC(=O)O)NC(=O)[C@H](C)N)C(C)C)C(=O)N[C@@H](C)C(=O)O [Fp14-3] (H-AEVKLYLKQSLSIA-OH; N-terminus and C-terminus assumed) | ++++ (>54% (++++)) | ++++ (>54% (++++)) | –
CC[C@H](C)[C@H](NC(=O)[C@H](CCCNC(=N)N)NC(=O)[C@H](CC(C)C)NC(=O)[C@H](CO)NC(=O)[C@H](CCC(=O)O)NC(=O)[C@H](CCC(N)=O)NC(=O)[C@H](CCC(N)=O)NC(=O)[C@H](CCSC)NC(=O)[C@H](Cc1ccc(O)cc1)NC(=O)[C@H](CC(C)C)NC(=O)[C@H](CCC(=O)O)NC(=O)[C@@H](N)Cc1ccc(O)cc1)C(=O)N[C@@H](CCC(N)=O)C(=O)N[C@@H](CC(=O)O)C(=O)N[C@@H](CCCNC(=N)N)C(=O)O [FIN7-1] (H-YELYMQQESLRIQDR-OH; N-terminus and C-terminus assumed) | ++ (26%-40% (++)) | ++ (25.1%-40% (++)) | –
CC(C)C[C@H](NC(=O)[C@@H](NC(=O)[C@H](Cc1c[nH]c2ccccc12)NC(=O)CNC(=O)[C@H](CCC(N)=O)NC(=O)[C@@H]1CCCN1C(=O)[C@H](CC(C)C)NC(=O)[C@H](CO)NC(=O)[C@H](CS)NC(=O)[C@H](Cc1c[nH]c2ccccc12)NC(=O)[C@@H](NC(=O)[C@H](Cc1ccc(O)cc1)NC(=O)[C@H](CCCNC(=N)N)NC(=O)[C@H](CCCNC(=N)N)NC(=O)CN)C(C)C)C(C)C)C(=O)O [FRT7-1] (H-GRRYVWCSLPQGWVL-OH) | +++ (41%-54% (+++)) | +++ (40.1%-54% (+++)) | –
CC(C)C[C@H](NC(=O)[C@@H](NC(=O)[C@H](C)NC(=O)[C@@H](NC(=O)[C@@H](NC(=O)[C@H](CC(N)=O)NC(=O)[C@H](Cc1ccc(O)cc1)NC(=O)[C@H](CC(C)C)NC(=O)[C@H](CO)NC(=O)[C@H](CCCNC(=N)N)NC(=O)[C@H](CC(C)C)NC(=O)[C@H](CCC(=O)O)NC(=O)[C@H](CCC(=O)O)NC(=O)[C@H](CO)NC(=O)CN)[C@@H](C)O)C(C)C)[C@@H](C)O)C(=O)O [HMA2] | – | – | − (0%-1.4% (−))
CC[C@H](C)[C@H](NC(=O)[C@@H](N)CCCCN)C(=O)N[C@@H](CCCNC(=N)N)C(=O)N[C@@H](CC(C)C)C(=O)N[C@@H](CCCNC(=N)N)C(=O)N1CCC[C@H]1C(=O)NCC(=O)NCC(=O)N[C@@H](CCCCN)C(=O)N[C@@H](CCCCN)C(=O)N[C@@H](CCCCN)C(=O)N[C@@H](Cc1ccc(O)cc1)C(=O)O [HMA1] | – | – | − (0%-1.4% (−))
CC[C@H](C)[C@H](N)C(=O)N1CCC[C@H]1C(=O)N[C@H](C(=O)NCC(=O)N[C@@H](CCC(=O)O)C(=O)N[C@H](C(=O)N[C@@H](Cc1ccc(O)cc1)C(=O)N[C@@H](CCCCN)C(=O)N[C@@H](CCCNC(=N)N)C(=O)N[C@@H](Cc1c[nH]c2ccccc12)C(=O)N[C@H](C(=O)N[C@H](C(=O)N[C@@H](CC(C)C)C(=O)NCC(=O)O)[C@@H](C)CC)[C@@H](C)CC)[C@@H](C)CC)C(C)C [Hp9-3 (10-3)] | – | – | +++ (40.1%-54% (+++))
CC[C@H](C)[C@H](NC(=O)[C@H](CCCCN)NC(=O)[C@@H](NC(=O)[C@@H](NC(=O)[C@@H](NC(=O)[C@H](CC(C)C)NC(=O)[C@@H]1CCCN1C(=O)[C@H](CCCNC(=N)N)NC(=O)[C@H](CCC(N)=O)NC(=O)[C@H](Cc1c[nH]c2ccccc12)NC(=O)[C@H](CC(C)C)NC(=O)[C@@H](N)[C@@H](C)O)C(C)C)[C@@H](C)O)[C@@H](C)CC)C(=O)NCC(=O)NCC(=O)O [HPR1] | – | – | − (0%-1.4% (−))
